Data from paper PMC4730229, “Benzobisthiazoles Represent a Novel Scaffold for Kinase Inhibitors of CLK Family Members” (Biochemistry, 2015).

Experiments:
AMPK (hum) = assay: Kinase profiling (radioactive filter binding); format: biochemical, human; conditions: 1 uM compound
Method: (§1) 3A5 and 5E4 were sent to the International Centre for Kinase Profiling at the MRC Protein Phosphorylation and Ubiquitylation Unit for profiling (as described in ref ([17])). Compounds were profiled against 140 kinases using a radioactive ([^33P]ATP) filter binding assay at a concentration of 1 μM. Results were obtained as inhibition of kinase activity and are listed in Supplementary Table 2.

PHK = assay: Kinase profiling (radioactive filter binding); format: biochemical, human; conditions: 1 uM compound
Method: as §1

PIM1 = PIM1 (Homo sapiens, UniProt P11309); assay: Kinase profiling (radioactive filter binding); format: biochemical; conditions: 1 uM compound
Method: as §1

EPH-B1 = EPH-B1 (Homo sapiens, UniProt P54762); assay: Kinase profiling (radioactive filter binding); format: biochemical; conditions: 1 uM compound
Method: as §1

CAMK1 = CAMK1 (Homo sapiens, UniProt Q14012); assay: Kinase profiling (radioactive filter binding); format: biochemical; conditions: 1 uM compound
Method: as §1

CSK = CSK (Homo sapiens, UniProt P41240); assay: Kinase profiling (radioactive filter binding); format: biochemical; conditions: 1 uM compound
Method: as §1

JNK2 = JNK2 (Homo sapiens, UniProt P45984); assay: Kinase profiling (radioactive filter binding); format: biochemical; conditions: 1 uM compound
Method: as §1

PKD1 = PKD1 (Homo sapiens, UniProt Q15139); assay: Kinase profiling (radioactive filter binding); format: biochemical; conditions: 1 uM compound
Method: as §1

DYRK3 = DYRK3 (Homo sapiens, UniProt O43781); assay: Kinase profiling (radioactive filter binding); format: biochemical; conditions: 1 uM compound
Method: as §1

HIPK2 = HIPK2 (Homo sapiens, UniProt Q9H2X6); assay: Kinase profiling (radioactive filter binding); format: biochemical; conditions: 1 uM compound
Method: as §1

EPH-B4 = EPH-B4 (Homo sapiens, UniProt P54760); assay: Kinase profiling (radioactive filter binding); format: biochemical; conditions: 1 uM compound
Method: as §1

EPH-B2 = EPH-B2 (Homo sapiens, UniProt P29323); assay: Kinase profiling (radioactive filter binding); format: biochemical; conditions: 1 uM compound
Method: as §1

MARK2 = MARK2 (Homo sapiens, UniProt Q7KZI7); assay: Kinase profiling (radioactive filter binding); format: biochemical; conditions: 1 uM compound
Method: as §1

CLK2 [1] = biological target: T1, CLK2 (Homo sapiens, UniProt P49760); assay: Kinase profiling (radioactive filter binding); format: biochemical; conditions: for CLK2 activity in kinase profiling: 1 uM compound; for inhibition at 1 µM: 1 μM compound, read-out: inhibition of CLK2 in kinase panel
Method: as §1
Target sequence in this assay (P49760 whole entry): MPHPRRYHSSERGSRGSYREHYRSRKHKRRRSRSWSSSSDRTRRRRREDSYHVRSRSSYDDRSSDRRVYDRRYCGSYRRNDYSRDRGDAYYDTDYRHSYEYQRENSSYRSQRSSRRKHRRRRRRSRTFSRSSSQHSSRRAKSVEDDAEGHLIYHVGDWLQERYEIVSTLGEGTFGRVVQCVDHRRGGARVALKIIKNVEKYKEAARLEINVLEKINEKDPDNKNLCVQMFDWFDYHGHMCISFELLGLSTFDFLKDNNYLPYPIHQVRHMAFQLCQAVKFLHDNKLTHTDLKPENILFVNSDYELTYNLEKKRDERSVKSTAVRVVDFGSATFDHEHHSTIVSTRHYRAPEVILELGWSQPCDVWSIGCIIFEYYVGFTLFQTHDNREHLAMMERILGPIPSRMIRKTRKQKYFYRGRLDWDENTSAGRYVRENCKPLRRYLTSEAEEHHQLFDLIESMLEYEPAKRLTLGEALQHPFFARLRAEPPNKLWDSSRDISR

RSK1 = RSK1 (Homo sapiens, UniProt Q15418); assay: Kinase profiling (radioactive filter binding); format: biochemical; conditions: 1 uM compound
Method: as §1

PAK6 = PAK6 (Homo sapiens, UniProt Q9NQU5); assay: Kinase profiling (radioactive filter binding); format: biochemical; conditions: 1 uM compound
Method: as §1

MNK2 = MNK2 (Homo sapiens, UniProt Q9HBH9); assay: Kinase profiling (radioactive filter binding); format: biochemical; conditions: 1 uM compound
Method: as §1

EPH-A4 = EPH-A4 (Homo sapiens, UniProt P54764); assay: Kinase profiling (radioactive filter binding); format: biochemical; conditions: 1 uM compound
Method: as §1

PIM2 = PIM2 (Homo sapiens, UniProt Q9P1W9); assay: Kinase profiling (radioactive filter binding); format: biochemical; conditions: 1 uM compound
Method: as §1

SIK2 = SIK2 (Homo sapiens, UniProt Q9H0K1); assay: Kinase profiling (radioactive filter binding); format: biochemical; conditions: 1 uM compound
Method: as §1

CDK9-Cyclin T1 = CDK9-Cyclin T1 (Homo sapiens, UniProt P50750); assay: Kinase profiling (radioactive filter binding); format: biochemical; conditions: 1 uM compound
Method: as §1

firefly luciferase = assay: Luciferase inhibition assay (Kinase-Glo, no kinase); format: biochemical; conditions: compound at 10 μM
Method: For analysis of luciferase inhibition, 10 μL of luciferase reagent (Kinase-Glo, Promega) was added to 10 μL of a mixture consisting of 1 μM ATP and 5 μM S6K and 10 μM compound (potential kinase inhibitor) in buffer A in the absence of kinase and incubated for 10 min at room temperature in a white well plate before the luminescence was read. The percentage of inhibition is equal to (luminescence in the assay without compound – luminescence in the assay with compound)/(luminescence in the assay without compound) × 100.

Dyrk1A = biological target: T2, Dyrk1A (Homo sapiens, UniProt Q13627); assay: Kinase profiling (radioactive filter binding); format: biochemical; conditions: for DYRK1A activity in kinase profiling: 1 uM compound; for inhibition at 1 µM: 1 μM compound, read-out: inhibitory activity toward DYRK1A in kinase panel
T2 construct: purchased Invitrogen PV3785

CLK2 [2] = biological target: T1, CLK2; assay: Kinase inhibition assay, IC50; format: biochemical; set-up: cDNA encoding the CLK2 catalytic domain (CLK2cd, amino acids 140–496); made in house; host or cells: Escherichia coli BL21(DE3)-R3-lambda-PPase; conditions: relative to 3A5

Sequence of CAMK1 (Q14012 whole entry): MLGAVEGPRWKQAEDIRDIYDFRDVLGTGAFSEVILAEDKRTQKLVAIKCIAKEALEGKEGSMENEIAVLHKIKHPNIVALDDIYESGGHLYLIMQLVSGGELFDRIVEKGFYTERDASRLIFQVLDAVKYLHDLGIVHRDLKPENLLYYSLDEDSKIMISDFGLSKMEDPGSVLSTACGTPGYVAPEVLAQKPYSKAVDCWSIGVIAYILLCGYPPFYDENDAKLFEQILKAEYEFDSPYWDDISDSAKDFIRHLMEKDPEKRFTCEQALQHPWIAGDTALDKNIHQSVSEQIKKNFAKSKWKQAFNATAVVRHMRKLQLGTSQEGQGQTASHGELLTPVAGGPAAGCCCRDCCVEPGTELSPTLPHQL
Sequence of PIM1 (P11309 whole entry): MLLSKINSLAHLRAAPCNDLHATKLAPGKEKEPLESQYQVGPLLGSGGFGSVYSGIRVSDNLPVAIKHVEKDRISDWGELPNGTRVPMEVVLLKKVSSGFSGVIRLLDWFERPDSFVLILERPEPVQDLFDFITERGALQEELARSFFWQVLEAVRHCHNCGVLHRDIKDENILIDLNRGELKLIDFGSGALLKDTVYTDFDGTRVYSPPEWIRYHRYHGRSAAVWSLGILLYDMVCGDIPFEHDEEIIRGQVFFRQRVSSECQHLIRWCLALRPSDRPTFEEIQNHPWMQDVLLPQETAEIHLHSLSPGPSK
Sequence of PKD1 (Q15139 whole entry): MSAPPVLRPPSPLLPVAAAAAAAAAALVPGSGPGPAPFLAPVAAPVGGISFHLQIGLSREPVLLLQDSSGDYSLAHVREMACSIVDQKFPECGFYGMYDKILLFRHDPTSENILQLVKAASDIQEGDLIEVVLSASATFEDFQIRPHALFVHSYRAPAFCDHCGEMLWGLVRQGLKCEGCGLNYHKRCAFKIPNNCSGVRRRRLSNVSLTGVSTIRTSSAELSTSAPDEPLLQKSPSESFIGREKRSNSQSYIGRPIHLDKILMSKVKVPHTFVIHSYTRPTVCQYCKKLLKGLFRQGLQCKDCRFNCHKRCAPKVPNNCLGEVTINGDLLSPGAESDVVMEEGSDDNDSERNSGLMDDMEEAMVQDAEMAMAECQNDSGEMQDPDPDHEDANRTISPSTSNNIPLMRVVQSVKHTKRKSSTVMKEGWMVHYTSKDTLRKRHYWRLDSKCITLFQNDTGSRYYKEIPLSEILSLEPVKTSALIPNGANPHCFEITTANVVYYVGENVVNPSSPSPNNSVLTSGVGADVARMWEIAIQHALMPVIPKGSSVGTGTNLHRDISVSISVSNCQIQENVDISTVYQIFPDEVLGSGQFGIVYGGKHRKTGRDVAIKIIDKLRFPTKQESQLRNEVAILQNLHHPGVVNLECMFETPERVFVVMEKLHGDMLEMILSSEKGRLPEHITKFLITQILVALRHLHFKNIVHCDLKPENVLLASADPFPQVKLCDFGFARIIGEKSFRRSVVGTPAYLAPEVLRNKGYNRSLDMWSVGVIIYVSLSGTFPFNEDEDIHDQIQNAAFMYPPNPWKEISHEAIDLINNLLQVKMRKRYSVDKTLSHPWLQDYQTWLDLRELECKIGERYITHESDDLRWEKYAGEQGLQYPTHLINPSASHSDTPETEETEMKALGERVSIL
Sequence of PAK6 (Q9NQU5 whole entry): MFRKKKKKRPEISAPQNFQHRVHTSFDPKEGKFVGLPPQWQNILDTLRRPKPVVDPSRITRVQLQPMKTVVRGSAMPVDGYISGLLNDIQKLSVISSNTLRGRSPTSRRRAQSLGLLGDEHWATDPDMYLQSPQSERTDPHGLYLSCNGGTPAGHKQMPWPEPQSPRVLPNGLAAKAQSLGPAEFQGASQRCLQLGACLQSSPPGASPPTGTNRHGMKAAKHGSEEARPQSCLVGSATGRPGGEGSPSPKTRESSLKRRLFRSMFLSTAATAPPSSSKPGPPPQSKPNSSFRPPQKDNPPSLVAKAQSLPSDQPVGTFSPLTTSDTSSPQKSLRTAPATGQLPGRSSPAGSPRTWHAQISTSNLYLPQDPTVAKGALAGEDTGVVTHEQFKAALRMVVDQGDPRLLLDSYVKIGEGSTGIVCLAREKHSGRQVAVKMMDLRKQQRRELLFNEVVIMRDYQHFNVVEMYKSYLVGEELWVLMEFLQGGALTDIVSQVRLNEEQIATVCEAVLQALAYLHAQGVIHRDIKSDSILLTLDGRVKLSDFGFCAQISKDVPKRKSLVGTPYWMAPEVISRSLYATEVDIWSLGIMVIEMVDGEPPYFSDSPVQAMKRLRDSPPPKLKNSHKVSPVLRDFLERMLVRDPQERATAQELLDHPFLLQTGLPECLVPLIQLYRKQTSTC
Sequence of MNK2 (Q9HBH9 whole entry): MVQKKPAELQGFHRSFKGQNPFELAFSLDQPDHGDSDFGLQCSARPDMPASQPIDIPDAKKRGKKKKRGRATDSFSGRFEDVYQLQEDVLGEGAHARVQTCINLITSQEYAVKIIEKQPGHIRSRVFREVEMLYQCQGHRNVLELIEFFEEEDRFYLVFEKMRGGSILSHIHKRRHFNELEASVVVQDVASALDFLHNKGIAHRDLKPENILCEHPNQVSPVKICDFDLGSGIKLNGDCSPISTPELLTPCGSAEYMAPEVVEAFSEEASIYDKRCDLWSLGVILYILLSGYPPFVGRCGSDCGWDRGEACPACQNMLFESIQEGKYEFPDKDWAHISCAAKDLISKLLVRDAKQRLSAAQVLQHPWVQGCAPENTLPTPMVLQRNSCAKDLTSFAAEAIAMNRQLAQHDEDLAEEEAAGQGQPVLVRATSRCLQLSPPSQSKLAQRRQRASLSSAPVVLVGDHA
Sequence of EPH-B2 (P29323 19-1055): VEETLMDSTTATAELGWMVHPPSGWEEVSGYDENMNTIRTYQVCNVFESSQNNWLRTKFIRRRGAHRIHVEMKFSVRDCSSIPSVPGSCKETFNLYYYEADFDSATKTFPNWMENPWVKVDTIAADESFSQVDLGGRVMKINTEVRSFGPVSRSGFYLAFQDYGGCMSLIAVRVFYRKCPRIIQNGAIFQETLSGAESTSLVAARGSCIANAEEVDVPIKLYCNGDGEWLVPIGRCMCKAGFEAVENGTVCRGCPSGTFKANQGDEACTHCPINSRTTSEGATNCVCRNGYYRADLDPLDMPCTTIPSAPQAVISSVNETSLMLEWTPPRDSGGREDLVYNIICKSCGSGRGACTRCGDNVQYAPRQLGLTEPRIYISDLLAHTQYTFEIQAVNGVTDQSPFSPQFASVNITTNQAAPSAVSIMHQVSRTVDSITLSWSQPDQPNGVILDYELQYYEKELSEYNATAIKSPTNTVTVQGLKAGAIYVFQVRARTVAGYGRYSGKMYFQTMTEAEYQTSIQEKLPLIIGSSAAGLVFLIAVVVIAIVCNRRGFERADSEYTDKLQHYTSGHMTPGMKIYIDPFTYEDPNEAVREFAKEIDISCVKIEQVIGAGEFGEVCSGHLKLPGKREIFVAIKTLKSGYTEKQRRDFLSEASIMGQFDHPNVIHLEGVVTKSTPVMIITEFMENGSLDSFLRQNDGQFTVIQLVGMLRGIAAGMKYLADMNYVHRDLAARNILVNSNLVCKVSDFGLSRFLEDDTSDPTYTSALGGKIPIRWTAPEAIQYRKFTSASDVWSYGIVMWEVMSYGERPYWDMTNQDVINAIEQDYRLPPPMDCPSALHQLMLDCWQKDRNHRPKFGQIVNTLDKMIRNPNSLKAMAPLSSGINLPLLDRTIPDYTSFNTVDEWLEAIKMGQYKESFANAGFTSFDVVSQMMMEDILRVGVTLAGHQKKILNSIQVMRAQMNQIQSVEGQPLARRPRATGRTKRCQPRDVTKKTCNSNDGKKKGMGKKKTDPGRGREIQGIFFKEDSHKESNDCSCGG
Sequence of DYRK3 (O43781 whole entry): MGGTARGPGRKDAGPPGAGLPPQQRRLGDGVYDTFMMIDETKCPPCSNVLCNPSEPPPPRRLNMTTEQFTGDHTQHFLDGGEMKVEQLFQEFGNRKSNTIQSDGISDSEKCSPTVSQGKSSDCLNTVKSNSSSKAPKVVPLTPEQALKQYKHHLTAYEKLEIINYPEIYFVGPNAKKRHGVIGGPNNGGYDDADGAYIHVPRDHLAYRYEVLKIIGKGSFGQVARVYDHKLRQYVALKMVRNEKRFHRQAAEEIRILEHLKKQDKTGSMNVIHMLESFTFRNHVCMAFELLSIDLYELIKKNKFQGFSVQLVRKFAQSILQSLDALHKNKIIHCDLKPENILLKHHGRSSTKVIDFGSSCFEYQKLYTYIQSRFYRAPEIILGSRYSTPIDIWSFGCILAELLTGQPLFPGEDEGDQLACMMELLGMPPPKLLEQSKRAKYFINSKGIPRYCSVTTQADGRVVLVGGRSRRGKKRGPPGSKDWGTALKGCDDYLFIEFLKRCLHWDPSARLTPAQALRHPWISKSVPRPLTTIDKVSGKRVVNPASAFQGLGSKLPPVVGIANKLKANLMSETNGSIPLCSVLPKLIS

CSc1nc2ccc3nc(NC(=O)c4ccco4)sc3c2s1 [5E4, N-[7-(methylsulfanyl)[1,3]thiazolo[4,5-g][1,3]benzothiazol-2-yl]-2-furamide]
AMPK (hum) activity in kinase profiling (AMPK (hum)): 84
PHK activity in kinase profiling (PHK): 110
PIM1 activity in kinase profiling (PIM1): 96
EPH-B1 activity in kinase profiling (EPH-B1): 93
CAMK1 activity in kinase profiling (CAMK1): 106
CSK activity in kinase profiling (CSK): 99
JNK2 activity in kinase profiling (JNK2): 107
PKD1 activity in kinase profiling (PKD1): 98
DYRK3 activity in kinase profiling (DYRK3): 30
HIPK2 activity in kinase profiling (HIPK2): 19
EPH-B4 activity in kinase profiling (EPH-B4): 84
EPH-B2 activity in kinase profiling (EPH-B2): 94
MARK2 activity in kinase profiling (MARK2): 90
CLK2 activity in kinase profiling (CLK2 [1]): 3
inhibition at 1 µM (CLK2 [1]): 97%
RSK1 activity in kinase profiling (RSK1): 92
PAK6 activity in kinase profiling (PAK6): 104
MNK2 activity in kinase profiling (MNK2): 88
EPH-A4 activity in kinase profiling (EPH-A4): 112
PIM2 activity in kinase profiling (PIM2): 71
SIK2 activity in kinase profiling (SIK2): 94
CDK9-Cyclin T1 activity in kinase profiling (CDK9-Cyclin T1): 88
% inhibition of luciferase (firefly luciferase): 29.7 ± 2.9%
DYRK1A activity in kinase profiling (Dyrk1A): 3
inhibition at 1 µM (Dyrk1A): 97%
decrease of inhibition against CLK2 compared to 3A5 (CLK2 [2]): 2–3 fold

Cc1nc2ccc3sc(NC(=O)c4ccc5ncsc5c4)nc3c2s1 [3A5, N-(2-methyl[1,3]thiazolo[5,4-e][1,3]benzothiazol-7-yl)-1,3-benzothiazole-6-carboxamide]
AMPK (hum) activity in kinase profiling (AMPK (hum)): 68
PHK activity in kinase profiling (PHK): 104
PIM1 activity in kinase profiling (PIM1): 71
EPH-B1 activity in kinase profiling (EPH-B1): 101
CAMK1 activity in kinase profiling (CAMK1): 85
CSK activity in kinase profiling (CSK): 93
JNK2 activity in kinase profiling (JNK2): 100
PKD1 activity in kinase profiling (PKD1): 96
DYRK3 activity in kinase profiling (DYRK3): 72
HIPK2 activity in kinase profiling (HIPK2): 96
EPH-B4 activity in kinase profiling (EPH-B4): 103
EPH-B2 activity in kinase profiling (EPH-B2): 90
MARK2 activity in kinase profiling (MARK2): 87
CLK2 activity in kinase profiling (CLK2 [1]): 3.39
inhibition at 1 µM (CLK2 [1]): 97%
RSK1 activity in kinase profiling (RSK1): 83
PAK6 activity in kinase profiling (PAK6): 96
MNK2 activity in kinase profiling (MNK2): 86
EPH-A4 activity in kinase profiling (EPH-A4): 120
PIM2 activity in kinase profiling (PIM2): 78
SIK2 activity in kinase profiling (SIK2): 91
CDK9-Cyclin T1 activity in kinase profiling (CDK9-Cyclin T1): 87
% inhibition of luciferase (firefly luciferase): 6.7 ± 2.8%
DYRK1A activity in kinase profiling (Dyrk1A): 16
inhibition at 1 µM (Dyrk1A): 84%
